Several values for one entry are separate records, joined by “and”; a condition that tells them apart may be missing. Equal values may be shown once. Read-outs that look alike come from different tables or passages of the source.
Assay: Human pharmacokinetics, dose-ranging study
Assay type: in vivo
Method: In a dose-ranging study, the pharmacokinetics (PK), safety and tolerability of RX-5902 at various oral doses were evaluated. Subjects with advanced or metastatic solid tumors were administered capsules containing RX-5902 at daily doses of 25-775 mg once weekly, 250-300 mg three times a week, 150-300 mg five times a week, or 300-350 mg seven times a week of RX-5902 for up to 6 dosing cycles. Each cycle consisting of 1-5 doses of RX-5902 per week for 3 weeks followed by 1 week of rest, or 5-7 doses of RX-5902 per week for 4 weeks without any rest per 4-week cycle. All but one subject had fasted from food for at least 8 hours before administration. One subject received 300 mg RX-5902 in fed state. Plasma concentrations were measured on Days 1 and 15, for 48 hrs, using a validated LC-MS/MS assay, and noncompartmental pharmacokinetic parameters were calculated using Phoenix WinNonlin, Version 6.4.
Preliminary PK data after a single administration is presented in FIG. 1 (for Subjects #1-11) and Table 3.

[1] = oral capsule, 300 mg, 1 per week, Day 1, fasted
[2] = oral capsule, 300 mg, 5 per week, Day 1, fasted
[3] = oral capsule, 775 mg, 1 per week, Day 1, fasted

Work on `COc1cc(OC)cc(N2CCN(C(=O)Nc3nc4cc(F)ccc4nc3OC)CC2)c1` [RX-5902, 4-(3,5-dimethoxyphenyl)-N-(7-fluoro-3-methoxyquinoxalin-2-yl)piperazine-1-carboxamide] yielded an AUC(0-t) (human, plasma, po, 300 mg, oral capsule, 300 mg, 1 per week, Day 1, fed, read-out: AUC0-24) of 8620 ng·h/mL, an AUC(0-t) (human, plasma, po, 300 mg, oral capsule, 300 mg, 1 per week, Day 1, fed, read-out: AUC0-48) of 10700 ng·h/mL and a Cmax (human, plasma, po, 300 mg, oral capsule, 300 mg, 1 per week, Day 1, fed, read-out: Cmax) of 779 ng/mL. The half-life (human, plasma, po, 300 mg, oral capsule, 300 mg, 1 per week, Day 1, fed, read-out: T1/2 (converted)) was 11.9 h, the Tmax (human, plasma, po, 300 mg, oral capsule, 300 mg, 1 per week, Day 1, fed, read-out: Tmax) was 4 h and the AUC(0-t) (human, plasma, po, 300 mg, oral capsule, 300 mg, 3 per week, Day 1, fasted, read-out: AUC0-24) was 3850 ng·h/mL. For the same compound, the AUC(0-t) (human, plasma, po, 300 mg, oral capsule, 300 mg, 3 per week, Day 1, fasted, read-out: AUC0-48) was 4560 ng·h/mL, the Cmax (human, plasma, po, 300 mg, oral capsule, 300 mg, 3 per week, Day 1, fasted, read-out: Cmax) was 288 ng/mL and the half-life (human, plasma, po, 300 mg, oral capsule, 300 mg, 3 per week, Day 1, fasted, read-out: T1/2 (converted)) was 10.3 h. It also gave a Tmax (human, plasma, po, 300 mg, oral capsule, 300 mg, 3 per week, Day 1, fasted, read-out: Tmax) of 6 h, an AUC(0-t) (human, plasma, po, 300 mg, oral capsule, 300 mg, 3 per week, Day 15, fasted, read-out: AUC0-24) of 3050 ng·h/mL and an AUC(0-t) (human, plasma, po, 300 mg, oral capsule, 300 mg, 3 per week, Day 15, fasted, read-out: AUC0-48) of 4140 ng·h/mL. It also gave a Cmax (human, plasma, po, 300 mg, oral capsule, 300 mg, 3 per week, Day 15, fasted, read-out: Cmax) of 301 ng/mL, a Tmax (human, plasma, po, 300 mg, oral capsule, 300 mg, 3 per week, Day 15, fasted, read-out: Tmax) of 2 h and an AUC(0-t) (human, plasma, po, 300 mg, oral capsule, 300 mg, 5 per week, Day 1, fasted, read-out: AUC0-24) of 3800 ng·h/mL. The Cmax (human, plasma, po, 300 mg, oral capsule, 300 mg, 5 per week, Day 1, fasted, read-out: Cmax) was 317 ng/mL, the AUC(0-t) (human, plasma, po, 300 mg, oral capsule, 300 mg, 5 per week, Day 15, fasted, read-out: AUC0-24) was 3840 ng·h/mL and the Tmax (human, plasma, po, 300 mg, oral capsule, 300 mg, 5 per week, Day 15, fasted, read-out: Tmax) was 1.5 h. The AUC(0-t) (human, plasma, po, 300 mg, oral capsule, 300 mg, 7 per week, Day 1, fasted, read-out: AUC0-24) was 2990 ng·h/mL, the AUC(0-t) (human, plasma, po, 300 mg, oral capsule, 300 mg, 7 per week, Day 1, fasted, read-out: AUC0-48) was 3180 ng·h/mL and the Cmax (human, plasma, po, 300 mg, oral capsule, 300 mg, 7 per week, Day 15, fasted, read-out: Cmax) was 1250 ng/mL. For the same compound, the Tmax (human, plasma, po, 300 mg, oral capsule, 300 mg, 7 per week, Day 15, fasted, read-out: Tmax) was 6 h, the AUC(0-t) (human, plasma, po, 350 mg, oral capsule, 350 mg, 7 per week, Day 1, fasted, read-out: AUC0-24) was 4820 ng·h/mL and the AUC(0-t) (human, plasma, po, 350 mg, oral capsule, 350 mg, 7 per week, Day 1, fasted, read-out: AUC0-48) was 4960 ng·h/mL. For the same compound, the Cmax (human, plasma, po, 350 mg, oral capsule, 350 mg, 7 per week, Day 1, fasted, read-out: Cmax) was 750 ng/mL, the Tmax (human, plasma, po, 350 mg, oral capsule, 350 mg, 7 per week, Day 1, fasted, read-out: Tmax) was 1.5 h and the AUC(0-t) (human, plasma, po, 425 mg, oral capsule, 425 mg, 1 per week, Day 1, fasted, read-out: AUC0-24) was 9320 ng·h/mL. It also gave an AUC(0-t) (human, plasma, po, 425 mg, oral capsule, 425 mg, 1 per week, Day 1, fasted, read-out: AUC0-48) of 14700 ng·h/mL, a Cmax (human, plasma, po, 425 mg, oral capsule, 425 mg, 1 per week, Day 1, fasted, read-out: Cmax) of 660 ng/mL and a Tmax (human, plasma, po, 425 mg, oral capsule, 425 mg, 1 per week, Day 1, fasted, read-out: Tmax) of 2 h. The AUC(0-t) (human, plasma, po, 575 mg, oral capsule, 575 mg, 1 per week, Day 1, fasted, read-out: AUC0-24) was 6820 ng·h/mL, the AUC(0-t) (human, plasma, po, 575 mg, oral capsule, 575 mg, 1 per week, Day 1, fasted, read-out: AUC0-48) was 10100 ng·h/mL and the Cmax (human, plasma, po, 575 mg, oral capsule, 575 mg, 1 per week, Day 1, fasted, read-out: Cmax) was 707 ng/mL. For the same compound, the Tmax (human, plasma, po, 575 mg, oral capsule, 575 mg, 1 per week, Day 1, fasted, read-out: Tmax) was 4 h, the AUC(0-t) (human, plasma, po, 775 mg, oral capsule, 775 mg, 1 per week, Day 1, fasted, read-out: AUC0-24) was 3540 ng·h/mL and the AUC(0-t) (human, plasma, po, 775 mg, oral capsule, 775 mg, 1 per week, Day 1, fasted, read-out: AUC0-48) was 5010 ng·h/mL. It also gave a Cmax (human, plasma, po, 775 mg, oral capsule, 775 mg, 1 per week, Day 1, fasted, read-out: Cmax) of 487 ng/mL, a half-life (human, plasma, po, 775 mg, oral capsule, 775 mg, 1 per week, Day 1, fasted, read-out: T1/2 (converted)) of 9.7 h and a Tmax (human, plasma, po, oral capsules, all subjects, after dosing, read-out: Tmax, observed range) of 1 to 6 h. It also gave a half-life (human, plasma, po, oral capsules, all subjects, read-out: Apparent terminal T1/2, mean value (converted)) of 13 h, a half-life (human, plasma, po, oral capsules, all subjects, read-out: Apparent terminal T1/2, range) of 5.8 to 27.6 h and an AUC0-24 [1] of 4170 ng·h/mL. For the same compound, the AUC0-48 [1] was 5552 ng·h/mL, the Cmax [1] was 452 ng/mL and the T1/2 [1] was 15.6 h. The AUC0-24 [2] was 4607 ng·h/mL and 3855 ng·h/mL, the Cmax [2] was 549 ng/mL and 419 ng/mL and 624 ng/mL and the AUC0-24 (oral capsule, 300 mg, 5 per week, Day 15, fasted) was 4878 ng·h/mL. For the same compound, the AUC0-24 [3] was 6925 ng·h/mL, the AUC0-48 [3] was 8126 ng·h/mL and the Cmax [3] was 654 ng/mL. For the same compound, the “apparent, short lag time” value (oral capsules, sometimes displayed) was 0.25 h and the “share of AUC0-t (0-48 hours) observed by 24 hours” value (oral capsules, usually) was “over 75%”.

— patent US9969698B2, “Quinoxalinyl-piperazinamide methods of use” (REXAHN PHARMACEUTICALS, INC., priority 2015, dated 2018)
